According to patent US20240368147A1, “CYCLIN K DEGRADER” (ADLAI NORTYE BIOPHARMA CO., LTD., priority 2021, published 2024):

Tests used:
[1] = molecular target: T1, Cyclin K (CCNK) (Homo sapiens, UniProt O75909+Q9NYV4); assay: Western blot detection of Cyclin K (CCNK) degradation; assay type: cell-based; settings: HEK293 cells, compared with the control; for degradation of Cyclin K (FIG. 2): 1 μM, 6 hours
T1 construct: total cell protein was extracted with RIPA cell lysis buffer; host or cells: HEK293
T1 sequence (O75909 whole entry): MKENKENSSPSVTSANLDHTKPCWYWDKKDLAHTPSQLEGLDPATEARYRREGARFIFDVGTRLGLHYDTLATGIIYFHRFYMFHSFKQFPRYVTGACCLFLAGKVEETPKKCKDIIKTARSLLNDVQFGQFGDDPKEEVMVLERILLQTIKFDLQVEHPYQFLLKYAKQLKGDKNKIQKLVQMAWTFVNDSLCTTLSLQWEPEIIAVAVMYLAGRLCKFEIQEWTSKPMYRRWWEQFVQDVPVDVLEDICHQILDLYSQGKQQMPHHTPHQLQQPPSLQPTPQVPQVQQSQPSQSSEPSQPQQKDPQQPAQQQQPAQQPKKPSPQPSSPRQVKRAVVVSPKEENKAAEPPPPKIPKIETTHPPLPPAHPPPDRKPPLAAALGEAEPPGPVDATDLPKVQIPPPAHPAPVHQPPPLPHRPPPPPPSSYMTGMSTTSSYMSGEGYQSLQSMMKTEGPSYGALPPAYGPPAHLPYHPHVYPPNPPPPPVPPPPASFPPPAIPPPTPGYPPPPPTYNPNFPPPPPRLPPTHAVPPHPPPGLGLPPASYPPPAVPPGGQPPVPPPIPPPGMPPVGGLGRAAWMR
T1 sequence (Q9NYV4 whole entry): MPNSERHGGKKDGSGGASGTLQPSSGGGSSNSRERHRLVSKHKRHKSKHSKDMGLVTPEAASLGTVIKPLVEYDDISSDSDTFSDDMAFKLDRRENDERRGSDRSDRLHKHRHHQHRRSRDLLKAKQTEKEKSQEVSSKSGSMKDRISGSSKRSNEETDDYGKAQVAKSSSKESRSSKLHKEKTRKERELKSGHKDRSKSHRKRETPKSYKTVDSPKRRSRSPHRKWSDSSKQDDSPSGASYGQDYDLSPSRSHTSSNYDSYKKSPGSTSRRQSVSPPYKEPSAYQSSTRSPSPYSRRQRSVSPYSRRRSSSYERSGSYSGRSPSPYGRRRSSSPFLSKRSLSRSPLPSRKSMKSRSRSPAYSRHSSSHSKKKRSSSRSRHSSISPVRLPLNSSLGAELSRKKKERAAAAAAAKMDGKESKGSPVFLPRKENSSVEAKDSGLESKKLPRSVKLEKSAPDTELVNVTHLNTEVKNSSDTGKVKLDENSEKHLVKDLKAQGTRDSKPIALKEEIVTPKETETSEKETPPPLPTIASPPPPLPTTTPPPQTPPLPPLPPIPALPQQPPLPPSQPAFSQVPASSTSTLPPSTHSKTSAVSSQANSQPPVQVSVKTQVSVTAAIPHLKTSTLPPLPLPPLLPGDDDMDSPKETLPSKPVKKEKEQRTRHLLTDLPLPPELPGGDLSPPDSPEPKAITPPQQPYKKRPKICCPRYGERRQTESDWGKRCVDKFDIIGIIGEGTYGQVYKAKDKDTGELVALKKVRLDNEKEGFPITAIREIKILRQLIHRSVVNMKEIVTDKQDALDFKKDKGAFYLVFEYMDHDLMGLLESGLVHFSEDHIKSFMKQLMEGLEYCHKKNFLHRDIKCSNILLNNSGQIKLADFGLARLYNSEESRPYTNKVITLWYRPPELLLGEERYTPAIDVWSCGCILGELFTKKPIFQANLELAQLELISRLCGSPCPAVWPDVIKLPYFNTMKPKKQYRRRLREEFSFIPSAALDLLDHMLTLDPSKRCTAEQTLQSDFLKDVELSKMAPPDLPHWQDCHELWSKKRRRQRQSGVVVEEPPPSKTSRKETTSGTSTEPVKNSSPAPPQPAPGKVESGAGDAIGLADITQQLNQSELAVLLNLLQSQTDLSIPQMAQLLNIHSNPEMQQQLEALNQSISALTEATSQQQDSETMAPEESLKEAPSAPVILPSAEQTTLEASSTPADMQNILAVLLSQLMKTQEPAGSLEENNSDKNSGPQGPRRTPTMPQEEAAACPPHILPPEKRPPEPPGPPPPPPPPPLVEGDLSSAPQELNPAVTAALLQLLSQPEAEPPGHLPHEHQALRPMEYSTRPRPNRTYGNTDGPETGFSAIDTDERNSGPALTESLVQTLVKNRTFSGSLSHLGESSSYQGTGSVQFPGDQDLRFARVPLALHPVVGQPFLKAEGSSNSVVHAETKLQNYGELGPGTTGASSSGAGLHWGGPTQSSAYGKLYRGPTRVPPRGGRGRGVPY
T1 sequence (Q16531 whole entry partner): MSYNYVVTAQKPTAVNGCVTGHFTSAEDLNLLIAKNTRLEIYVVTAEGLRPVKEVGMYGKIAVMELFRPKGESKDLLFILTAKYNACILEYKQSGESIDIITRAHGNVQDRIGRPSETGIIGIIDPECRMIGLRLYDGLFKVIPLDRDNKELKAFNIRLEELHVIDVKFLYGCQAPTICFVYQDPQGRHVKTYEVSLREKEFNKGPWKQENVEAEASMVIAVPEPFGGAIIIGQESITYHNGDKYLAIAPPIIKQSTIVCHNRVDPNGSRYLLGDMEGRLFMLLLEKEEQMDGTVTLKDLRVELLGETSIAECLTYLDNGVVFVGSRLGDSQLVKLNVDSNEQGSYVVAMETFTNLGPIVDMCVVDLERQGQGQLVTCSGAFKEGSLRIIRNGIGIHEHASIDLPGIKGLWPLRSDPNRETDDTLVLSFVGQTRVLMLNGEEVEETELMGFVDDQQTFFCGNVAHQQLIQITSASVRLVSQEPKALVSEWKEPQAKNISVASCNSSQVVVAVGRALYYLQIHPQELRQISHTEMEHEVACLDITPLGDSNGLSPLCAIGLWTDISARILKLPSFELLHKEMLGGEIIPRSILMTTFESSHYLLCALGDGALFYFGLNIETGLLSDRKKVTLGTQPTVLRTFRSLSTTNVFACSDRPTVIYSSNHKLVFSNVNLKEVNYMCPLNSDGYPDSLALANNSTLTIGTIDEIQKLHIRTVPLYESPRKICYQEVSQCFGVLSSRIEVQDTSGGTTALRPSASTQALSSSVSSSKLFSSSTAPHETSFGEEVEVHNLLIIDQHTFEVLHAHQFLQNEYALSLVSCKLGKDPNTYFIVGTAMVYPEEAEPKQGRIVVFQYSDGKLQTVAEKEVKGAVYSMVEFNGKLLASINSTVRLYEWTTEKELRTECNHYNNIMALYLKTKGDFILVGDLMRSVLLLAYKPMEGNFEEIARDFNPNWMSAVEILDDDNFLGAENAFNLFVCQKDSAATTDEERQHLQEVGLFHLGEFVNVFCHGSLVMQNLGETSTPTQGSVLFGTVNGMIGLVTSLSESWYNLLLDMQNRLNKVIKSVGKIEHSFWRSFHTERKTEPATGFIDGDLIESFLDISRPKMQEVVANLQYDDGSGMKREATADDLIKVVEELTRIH
Experimental: Western Blot Detection of Cyclin K (CCNK) Degradation
Harvest HEK1293 cells (ATCC, cat #CRL-1573) and adjust the cell density to 1×10^6 cells per ml. Pour 1 ml of cell suspension per well into a 6-well plate and culture overnight. Take the compound stock solution and dilute it to the appropriate concentration with DMSO. Add the diluted compound into the cell wells using culture medium at a ratio of 1:1000 to ensure that the DMSO concentration in each well is 0.1%. At the same time, negative control wells were set, that is, complete culture medium containing 0.1% DMSO. After the compounds were treated and fixed at the concentrations shown in the figure and for different times, total cell protein was extracted with RIPA cell lysis buffer (Beyotime, cat #P0013B) added with PMSF. After protein quantification using the BCA protein quantification kit (Thermo Fisher, cat #A53225), each sample was subjected to subsequent SDS-PAGE and western blot experiments at a loading volume of 40 μg. The specific conditions are: after running the gel at 120V constant pressure for 90 minutes, transfer the film at a constant current of 320 mA for 60 minutes. Carry out antibody incubation according to the recommended dilution ratio and incubation time of the antibody. The information of the antibodies used in the experiment is as follows: Anti-GAPDH antibody (abcam, cat #ab9485), Anti-Cyclin K antibody (abcam, cat #ab85854), Goat anti-Rabbit IgG (H+L) Cross-Adsorbed Secondary Antibody, HRP (invitrogen, cat #G-21234). ECL luminescence solution (Thermo Fisher, cat #32209) was used to develop color and luminescence. A gel imaging system was used to analyze the final results.
According to the above detection method, some compounds of the present disclosure were evaluated.

[2] = tested on: HGC27 (Human Gastric Cancer Cell); assay: HGC27 cell growth inhibition (CellTiter-Glo); assay type: cell-based; settings: Homo sapiens, HGC-27, 24 h, HGC27 cells, 24 hours, CellTiter-Glo; read-out: HGC27 CTG IC50
Experimental: Biological Activity Detection of HGC27 (Human Gastric Cancer Cell) Cell Growth Inhibition
This detection method is used to evaluate the cellular level biological activity of the compounds of the present disclosure.
Harvest HGC27 cells (purchased from Chinese Academy of Sciences), resuspend in complete culture medium and adjust the cell density to 0.2×10^6 cells per ml. Add 100 μL of cell suspension to each well into a 96-well plate and incubate overnight in a 37° C., 5% CO2 incubator. Prepare the compound to be tested and add it to the cell plate so that the maximum concentration of the compound is 10 μM. Set 8 concentration points according to 3-fold dilution. At the same time, set up a 100% inhibition control well, that is, a well with no cells added and only an equal volume of complete culture medium; and a 0% inhibition control well, that is, a cell well with 0.1% DMSO added. The above cell plate was cultured at 37° C. and 5% CO2 for 24 hours. Take out the cell culture plate, add 25 μl CellTiter-Glo® Luminescent Cell Viability reagent (promega cat #G7573) to each well, incubate in the dark for 10 minutes, transfer 100 μL to a white plate, and use Molecular Devices SpectraMax i3 to detect chemiluminescence. Data processing uses the following formula to calculate the inhibition rate: compound inhibition rate=(0% inhibition of control well signal−compound treatment well signal)/(0% inhibition of control well signal−100% inhibition of control well signal)*100%. The calculated data were fitted using graphpad prism software with four parameters and the corresponding IC50 was calculated.
According to the above detection method, the biological activity of the compound of the present disclosure was evaluated at the cellular level. Wherein, CR8 is a literature compound, which was purchased from Shanghai Bide Pharmaceutical.

Row | Compound | degradation of Cyclin K (FIG. 2) [1] | IC50 [2] [nM] | degradation of Cyclin K (FIG. 1) ([1]; 0.1, 0.3, 1 μM, 6 h, 14 h, 24 h)
1 | FC(F)(F)c1cnc(NCc2ccc(-c3ccccn3)cn2)nc1OC1COC1 [Compound 4] | significantly induce the degradation of Cyclin K |  | 
2 | CS(=O)(=O)c1cncc(-c2nc(NCc3ccc(-c4ccccn4)cc3)ncc2C(F)(F)F)c1 [Compound 13] | significantly induce the degradation of Cyclin K | 307 | 
3 | FC(F)(F)c1cnc(NCc2ccc(-c3ccccn3)cc2)nc1NC1COC1 [Compound 8] | significantly induce the degradation of Cyclin K |  | 
4 | Clc1cnc(NCc2ccc(-c3ccccn3)cc2)nc1OC1COC1 [Compound 3] | significantly induce the degradation of Cyclin K |  | 
5 | FC(F)(F)c1cnc(NCc2ccc(-c3ccccn3)cc2)nc1OC1COC1 [Compound 1] |  | 385 | significantly induce the degradation of Cyclin K
6 | FC(F)(F)c1cnc(NCc2ccc(-c3cccnc3)cc2)nc1OC1COC1 [Compound 5] | significantly induce the degradation of Cyclin K |  | 
7 | OCc1cccc(-c2ccc(CNc3ncc(C(F)(F)F)c(OC4COC4)n3)cc2)n1 [Compound 18] | significantly induce the degradation of Cyclin K | 281 | 
8 | O[C@H]1CCCC[C@H]1Nc1nc(NCc2ccc(-c3ccccn3)cc2)ncc1C(F)(F)F [Compound 156] |  | 169 | 
9 | CC[C@@H](Nc1nc(NCc2ccc(-c3ccccn3)cc2)ncc1C(F)(F)F)C(N)=O [Compound 134] |  | 370 | 
10 | O[C@@H]1CCC[C@H]1Nc1nc(NCc2ccc(-c3ccccn3)cc2)ncc1C(F)(F)F [Compound 70] |  | 160 | 
11 | CC[C@@H](Nc1nc(NCc2ccc(-c3cc(CO)cc(C)n3)cc2)ncc1C(F)(F)F)C(N)=O [Compound 161] |  | 193 | 
12 | NC(=O)[C@H](Nc1nc(NCc2ccc(-c3ccccn3)cc2)ncc1C(F)(F)F)C1CC1 [Compound 206] |  | 65 | 
13 | C[C@@H](Nc1nc(NCc2ccc(-c3ccccn3)cc2)ncc1C(F)(F)F)C(N)=O [Compound 188] |  | 258 | 
14 | CC[C@H](CO)Nc1nc(NCc2ccc(-c3ccccn3)cc2)ncc1C(F)(F)F [Compound 25] |  | 158 | 
